The text below walks through data of patent US5635534A, “Aromatic amino-alcohol derivatives having anti-diabetic and anti-obesity properties, their preparation and their therapeutic uses” (Sankyo Company, Limited, priority 1991, dated 1997).

Data set [1] concerns male mice of the ddY strain. Put plainly: Toxicity, oral administration to mice, one week observation. The format is in vivo, mouse. The following applies: 300 mg/kg oral; for survival at the end of the period of observation: groups of 3, one week; for abnormalities which could be attributed to the test compounds: groups of 3, one week observation. The protocol:
The test animals employed were male mice of the ddY strain. The animals were employed in groups of 3. The test compound was administered orally to each animal group at a dose of 300 mg/kg body weight. The compounds employed were those prepared as described in Examples 1, 3, 8, 24, 47 and 48.

For a further data set, the system named is KK male mice. Put plainly: Hypoglycemic effect during glucose load in mice. The class given is in vivo, mouse. The following applies: 1 mg/kg oral, 4 mice; for inhibition in vivo at 1 mg/kg: Mus musculus, po. The method, then:
Hypoglycemic effect during glucose load
The hypoglycemic effect of the compounds of the present invention during glucose load in mice was measured as follows.
Three month old KK male mice, each weighing 28 to 30 g, were fasted overnight, and then 1 mg/kg of the compound to be tested or carboxymethylcellulose (CMC) as a control was administered orally. After 60 minutes, 1.2 g/kg of D-glucose was administered subcutaneously. Then, at 60 and 120 minutes after the subcutaneous glucose injection, blood samples were taken, and the glucose levels were determined by means of a glucose analyzer (GL-101, a product of Mitsubishi Kasei, Co.). The hypoglycemic rates (R) of the test compound during the glucose load were calculated according to the following equation: […]
A: Blood glucose level in the group administered CMC
B: Blood glucose level in the group administered a test sample.

Data set [2] addresses T1, Bovine lens aldose reductase (Bos taurus, UniProt P16116).
T1 construct: Bovine lens aldose reductase was separated and partially purified; from tissue; host or cells: bovine lens
Put plainly: Inhibition of Aldose reductase. The following applies: for inhibition at 5 µg/mL: 5 μg/ml. The format is biochemical. The method, then: Inhibition of Aldose reductase
Bovine lens aldose reductase was separated and partially purified by the method of S. Hyman and J. H. Kinoshita [J. Biol. Chem., 240, 877 (1965)] and K. Inagaki, I. Miwa and J. Okuda [Arch. Biochem. Biophys., 316, 337 (1982)], and its activity was determined photometrically by the method of Varma et al. [Biochem. Pharmac., 25, 2505 (1976)]. Inhibition of enzyme activity was measured for the compounds of the present invention at a concentration of 5 μg/ml, and the results are shown in the following Table 10.

[3] abbreviates: 1 h, 60 min after subcutaneous glucose 1.2 g/kg, read-out: Hypoglycemic rate during glucose load, 60 min.
Where [4] appears, read: 2 h, 120 min after subcutaneous glucose 1.2 g/kg, read-out: Hypoglycemic rate during glucose load, 120 min.

Where a name gives a salt, the structure may show the parent alone. Read-outs that look alike come from different tables or passages of the source.

As to `CC(COc1ccc(CO)cc1)NCC(O)c1cccc(Cl)c1` (stereo not shown) [Example 1, 2-[2-(4-Hydroxymethylphenoxy)-1-methylethyl]-amino-1-(3-chlorophenyl)ethanol], in data set [1], the “survival at the end of the period of observation” value was “All animals were alive” and the “abnormalities which could be attributed to the test compounds” value is recorded as “no abnormalities”.
Consider `COC(=O)Cc1ccc(OCC(C)NCC(O)c2cccc(Cl)c2)cc1` (stereo not shown) [Example 3, 2-[2-(4-Methoxycarbonylmethylphenoxy)-1-methylethyl]-amino-1-(3-chlorophenyl)ethanol], for which the inhibition in vivo at 1 mg/kg in the data set on KK male mice (setting [3]) amounted to 67.3%; with KK male mice (setting [4]), 56.5%.
Taken in the same sequence, the figures for `COC(=O)C(O)Cc1ccc(OCC(C)NCC(O)c2cccc(Cl)c2)cc1` (stereo not shown) [Example 6, 2-{2-[4-(2-Methoxycarbonyl-2-hydroxyethyl)phenoxy]-1-methylethyl}amino-1-(3-chlorophenyl)ethanol] were 43.4% and 40.5%.
Consider `CC(COc1ccc(CCO)cc1)NCC(O)c1cccc(Cl)c1` (stereo not shown) [Example 8, 2-{2-[4-(2-Hydroxyethyl)phenoxy]-1-methylethyl}amino-1-(3-chlorophenyl)ethanol], for which the inhibition in vivo at 1 mg/kg is 56.8% with KK male mice (setting [3]) and 45.1% in the data set with KK male mice (setting [4]).
With `COC(=O)Cc1ccc(OCC(C)NCC(O)c2cccc(Cl)c2)cc1` (stereo not shown) [Example 24, 2-[2-(4-Methoxycarbonylmethylphenoxy)-1-methylethyl]amino-1-(3-chloropbenyl)ethanol fumarate], the “Hypoglycemic rate during glucose load, 60 min.” value in the data set on KK male mice (60 min after subcutaneous glucose 1.2 g/kg) is reported as 61.4%. For the same compound, the “Hypoglycemic rate during glucose load, 120 min.” value in the data set on KK male mice (120 min after subcutaneous glucose 1.2 g/kg) came to 56.9%.
On to `COC(=O)Cc1ccc(OC[C@@H](C)NC[C@H](O)c2ccccc2)cc1` [Example 27, 2-[2-(4-Methoxycarbonylmethylphenoxy)-1(R)-methylethyl]amino-1(R)-phenylethanol], for which the values for the inhibition in vivo at 1 mg/kg in the data set on KK male mice (setting [3]) and in the data set on KK male mice (setting [4]) were 68.4% and 52.1%, respectively.
Consider `CC(COc1ccc(CC(=O)NO)cc1Cl)NCC(O)c1cccc(Cl)c1` (stereo not shown) [Example 34, 2-{2-[2-Chloro-4-(N-hydroxycarbamoylmethyl)phenoxy]-1-methylethyl}amino-1-(3-chlorophenyl)ethanol], for which, in data set [2], half-maximal inhibition (IC50) was put at 6.05 µM and at 5 µg/mL the inhibition was 63.3%.
The matching figures for `CC(COc1ccc(CC(=O)O)cc1Cl)NCC(O)c1cccc(Cl)c1` (stereo not shown) [Example 36, 2-[2-(4-Carboxymethyl-2-chlorophenoxy)-1-methylethyl]amino-1-(3-chlorophenyl)ethanol]: 7.28 µM and 60.4%.
For the compound `COC(=O)Cc1ccc(OCC(C)NCC(O)c2cc(Cl)cc(Cl)c2)cc1` (stereo not shown) [Example 40, 2-[2-(4-Methoxycarbonylmethylphenoxy)-1-methylethyl]amino-1-(3,5-dichlorophenyl)ethanol], the inhibition in vivo at 1 mg/kg in the data set with KK male mice (setting [3]) was 37.9%; with KK male mice (setting [4]) it was 24.5%.
The matching figures for `COC(=O)Cc1ccc(OCC(C)NCC(O)c2ccc(F)c(Cl)c2)cc1` (stereo not shown) [Example 41, 2-[2-(4-Methoxycarbonylmethylphenoxy)-1-methylethyl]amino-1-(3-chloro-4-fluorophenyl)ethanol]: 50.1% and 43%.
Taken in the same sequence, the figures for `COC(=O)Cc1ccc(OCC(C)NCC(O)c2cccc(Br)c2)cc1` (stereo not shown) [Example 42, 2-[2-(4-Methoxycarbonylmethylphenoxy)-1-methylethyl]amino-1-(3-bromophenyl)ethanol] were 60.9% and 57.6%.
Regarding `COC(=O)Cc1ccc(OCC(C)NCC(O)c2cccc(C(F)(F)F)c2)cc1` (stereo not shown) [Example 43, 2-[2-(4-Methoxycarbonylmethylphenoxy)-1-methylethyl]amino-1-(3-trifluoromethylphenyl)ethanol], the inhibition in vivo at 1 mg/kg in the data set on KK male mice (setting [3]) was 66.5%; in the data set with KK male mice (setting [4]), 58.6%.
Taken in the same sequence, the figures for `COC(=O)Cc1ccc(OCC(C)NCC(O)c2cccc(OC)c2)cc1` (stereo not shown) [Example 44, 2-[2-(4-Methoxycarbonylmethylphenoxy)-1-methylethyl]amino-1-(3-methoxyphenyl)ethanol] were 38.1% and 24.8%.
In the case of `COC(=O)Cc1ccc(OC[C@@H](C)NC[C@H](O)c2cccc(Cl)c2)cc1.O=C(O)/C=C/C(=O)O` [Example 47, 2-[2-(4-Methoxycarbonylmethylphenoxy)-1(R)-methylethyl]amino-1(R)-(3-chlorophenyl)ethanol fumarate], the results for the inhibition in vivo at 1 mg/kg in the data set with KK male mice (setting [3]) and with KK male mice (setting [4]) were 60.9% and 51.5%, respectively. For the same compound, the “survival at the end of the period of observation” value in data set [1] was “All animals were alive”. The “abnormalities which could be attributed to the test compounds” value in data set [1] is “no abnormalities”.
With `C[C@H](COc1ccc(CC2SC(=O)NC2=O)cc1)NC[C@H](O)c1cccc(Cl)c1` (stereo partly drawn) [Example 48, 5-[4-{2(R)-[2(R)-(3-Chlorophenyl)-2-hydroxyethylamino]propoxy}benzyl]thiazolidine-2,4-dione], testing at 5 µg/mL in data set [2] gave an inhibition of 47.5%.
